This test concerns Balb/c mice. Briefly: Polypeptide chip-based vaccine immunogenicity scoring system. Also on record: key to A2: whether the 95 percentile of the last sampling is increased compared with the end point: Y = rise; N = no rise. The class given is in vivo. The following applies: Embodiment III, polypeptide-KLH; for A1: difference between a highest median and a D 0 median (95 percentile) / A2: whether the 95 percentile of the last sampling is increased compared with the end point: Mix1-10; for Total single peptide: A*3 + B*2 + C*1; for A: 95 percentile grouping number score / B: Mouse performance score: total score = 5; for C1: #A timing-sequence response peptide fragment set / C2: #B vaccine specificity peptide fragment set / C3: Intersection of A and B / C4: Percentage of the intersection in set B / C: Timing-sequence response and specificity score: value of the whole mix. On the procedure: Data distribution and characteristics thereof are analyzed based on a) and b), a polypeptide chip-based vaccine immunogenicity scoring system (referring to Table 7) is designed.
10 combinations are evaluated by the polypeptide chip-based vaccine immunogenicity scoring system. An evaluation method is consistent with that in Embodiment II. Evaluation results are show in the table below.
This embodiment is consistent with Embodiment II. Each combination is evaluated by the polypeptide chip-based vaccine immunogenicity scoring system. Evaluation results are show in the table below.

As for KEIDRLNEV [SEQ ID NO:12], the “B1: D 0-D 14 95 percentile rise in the number of mice” value (“B1: D 0-D 14 95 percentile rise” for short) is reported as 3, the “B2: D 0-D 21 95 percentile rise in the number of mice” value (shortened to “B2: D 0-D 21 95 percentile rise”) came out at 3, the “B3: D 14-D 21 95 percentile rise in the number of mice” value (“B3: D 14-D 21 95 percentile rise” below) came to 1 and the “B4: D 21-D 28 95 percentile rise in the number of mice” value (shortened to “B4: D 21-D 28 95 percentile rise”) is reported as 0. Also, the “A1: difference between a highest median and a D 0 median (95 percentile)” value stood at 0.10; the “A2: whether the 95 percentile of the last sampling is increased compared with the end point” value was “N”; the Total single peptide is 15.9; the “A: 95 percentile grouping number score” value was 4. Also, the “B: Mouse performance score” value turned out to be 1.7; the “C1: #A timing-sequence response peptide fragment set” value was 257; the “C2: #B vaccine specificity peptide fragment set” value is reported as 682; the “C3: Intersection of A and B” value turned out to be 3. In addition, the “C4: Percentage of the intersection in set B” value (“C4: Percentage” for short) is recorded as 0.440; the “C: Timing-sequence response and specificity score” value was found to be 0.5.
Take KKPASRELKVTF [SEQ ID NO:24]: the “B1: D 0-D 14 95 percentile rise” value is 3, the “B2: D 0-D 21 95 percentile rise” value amounted to 3, the “B3: D 14-D 21 95 percentile rise” value is 1 and the “B4: D 21-D 28 95 percentile rise” value is reported as 2. In addition, the “A1: difference between a highest median and a D 0 median (95 percentile)” value came out at 0.10; the “A2: whether the 95 percentile of the last sampling is increased compared with the end point” value is reported as “Y”; the Total single peptide was 18.2; the “A: 95 percentile grouping number score” value stood at 4.5. Also, the “B: Mouse performance score” value turned out to be 2.1; the “C1: #A timing-sequence response peptide fragment set” value was determined as 145; the “C2: #B vaccine specificity peptide fragment set” value was 529; the “C3: Intersection of A and B” value stood at 1. In addition, the “C4: Percentage” value came to 0.189; the “C: Timing-sequence response and specificity score” value was 0.5.
In the case of “KLDNYYKKDNSY (SARS-CoV-2) [SEQ ID NO:32]”, the “B1: D 0-D 14 95 percentile rise” value is on record as 3, the “B2: D 0-D 21 95 percentile rise” value is reported as 3, the “B3: D 14-D 21 95 percentile rise” value was determined as 1 and the “B4: D 21-D 28 95 percentile rise” value is recorded as 2. The “A1: difference between a highest median and a D 0 median (95 percentile)” value is recorded as 0.12; the “A2: whether the 95 percentile of the last sampling is increased compared with the end point” value was “Y”; the Total single peptide amounted to 20.2; the “A: 95 percentile grouping number score” value was found to be 5. Moreover, the “B: Mouse performance score” value is 2.1; the “C1: #A timing-sequence response peptide fragment set” value worked out at 1494; the “C2: #B vaccine specificity peptide fragment set” value is 190; the “C3: Intersection of A and B” value amounted to 2. The “C4: Percentage” value was determined as 1.053; the “C: Timing-sequence response and specificity score” value turned out to be 1.
KRISNCVADY [SEQ ID NO:8]: the “B1: D 0-D 14 95 percentile rise” value was determined as 2, the “B2: D 0-D 21 95 percentile rise” value is recorded as 3, the “B3: D 14-D 21 95 percentile rise” value is recorded as 2 and the “B4: D 21-D 28 95 percentile rise” value was determined as 1. Also, the “A1: difference between a highest median and a D 0 median (95 percentile)” value worked out at 0.03; the “A2: whether the 95 percentile of the last sampling is increased compared with the end point” value was “N”; the Total single peptide worked out at 7.1; the “A: 95 percentile grouping number score” value is listed as 1. The “B: Mouse performance score” value came to 1.8; the “C1: #A timing-sequence response peptide fragment set” value was 230; the “C2: #B vaccine specificity peptide fragment set” value came to 251; the “C3: Intersection of A and B” value is given as 1. The “C4: Percentage” value is on record as 0.398; the “C: Timing-sequence response and specificity score” value amounted to 0.5.
On to KVFRSSVLHSTQ [SEQ ID NO:6], for which the “B1: D 0-D 14 95 percentile rise” value turned out to be 3, the “B2: D 0-D 21 95 percentile rise” value was determined as 3, the “B3: D 14-D 21 95 percentile rise” value is given as 0 and the “B4: D 21-D 28 95 percentile rise” value is listed as 2. The “A1: difference between a highest median and a D 0 median (95 percentile)” value was 0.09; the “A2: whether the 95 percentile of the last sampling is increased compared with the end point” value was “Y”; the Total single peptide stood at 16.3; the “A: 95 percentile grouping number score” value came to 4. Also, the “B: Mouse performance score” value was determined as 1.9; the “C1: #A timing-sequence response peptide fragment set” value is 1212; the “C2: #B vaccine specificity peptide fragment set” value is 389; the “C3: Intersection of A and B” value is given as 1. Also, the “C4: Percentage” value turned out to be 0.257; the “C: Timing-sequence response and specificity score” value is on record as 0.5.
As for LPFNDGVYF (SARS-CoV-2) [SEQ ID NO:14], the “B1: D 0-D 14 95 percentile rise” value was 3, the “B2: D 0-D 21 95 percentile rise” value is reported as 2, the “B3: D 14-D 21 95 percentile rise” value amounted to 2 and the “B4: D 21-D 28 95 percentile rise” value amounted to 3. Besides, the “A1: difference between a highest median and a D 0 median (95 percentile)” value is reported as 0.09; the “A2: whether the 95 percentile of the last sampling is increased compared with the end point” value is on record as “Y”; the Total single peptide is recorded as 17.1; the “A: 95 percentile grouping number score” value is recorded as 4. The “B: Mouse performance score” value is recorded as 2.3; the “C1: #A timing-sequence response peptide fragment set” value is 133; the “C2: #B vaccine specificity peptide fragment set” value came to 431; the “C3: Intersection of A and B” value was 1. Moreover, the “C4: Percentage” value worked out at 0.232; the “C: Timing-sequence response and specificity score” value amounted to 0.5.

These data come from patent US20230136600A1, “Method and device for screening antigen epitope polypeptide” (priority 2020, published 2023).
